Among the data in patent US20240199676A1, “ANTIVIRAL COMPOUNDS AND METHODS OF MAKING AND USING THE SAME” (Gilead Sciences, Inc., priority 2022, published 2024) are EC50 and half-life values, retold here.

SMILES strings stand for the structures.

The test system of data set [1] is Respiratory syncytial virus recombinant with luciferase (RSV-Luc5) in NHBE cells. The data set can be described thus: NHBE RSV-Luc5 384-well Assay (RSV FLUC NHBE 384 V2, Ex. W). Type of data set: cell-based. Particulars: human respiratory syncytial virus, 72 h, read-out: EC50 RSV FLUC NHBE 384 V2 (per Ex. W). The source says: Example W: NHBE RSV-Luc5 384-well Assay (EC50 RSVFLUC NHBE-384)
Normal Human Bronchial Epithelial (NHBE) cells were purchased from Lonza (Walkersville, MD Cat #CC2540) and maintained in BEGM Bronchial Epithelial Cell Growth Medium BulletKit (Lonza CC-3170).
Cells were thawed, expanded, and were used for experiments at passage 2. Respiratory syncytial virus recombinant with luciferase (RSV-Luc5) (≥1×10^7 Infectious Units/mL (IU/mL) determined by TCID50) was purchased from Microbiologics (Saint Cloud, MN). Viral replication was determined in NHBE cells in the following manner.
Compounds are prepared in 100% DMSO in 384-well polypropylene plates (Greiner, Monroe, NC, Cat #784201) with 8 compounds per plate in grouped replicates of 4 at 10 serially diluted concentrations (1:3). The serially diluted compounds were transferred to low dead volume Echo plates (Labcyte, Sunnyvale, CA, Cat #LP-0200).
The test compounds were spotted to 384-well assay plates (Greiner, Monroe, NC, Cat#781091) at 200 nL per well using an Echo acoustic dispenser (Labcyte, Sunnyvale, CA). NHBE cells were harvested and suspended in BEGM Bronchial Epithelial Cell Growth Medium BulletKit and seeded to the pre-spotted assay plates at 5,000 cells per well in 30 μL. RSV-Luc5 virus was diluted in BEGM Bronchial Epithelial Cell Growth Medium BulletKit at 500,000 Infectious Units (IU) per mL and 10 μL per well was added to the assay plates containing cells and compounds, for an MOI of 1. The assay plates were incubated for 3 days at 37° C. and 5% CO2. At the end of incubation, One-Glo reagent (Promega, Madison, WI, Cat #E6120) was prepared. The assay plates and One-Glo reagent were equilibrated to room temperature for at least 15 minutes. 40 μL per well of One-Glo reagent was added and the plates were incubated at room temperature for 15 minutes before reading the luminescence signal on an EnVision multimode plate reader (Perkin Elmer, Waltham, MA). Remdesivir was used as positive control and DMSO was used as negative control. Values were normalized to the positive and negative controls (as 0% and 100% replication, respectively) and data was fitted using non-linear regression analysis by Gilead's dose response tool. The EC50 value for each compound was defined as the concentration reducing the viral replication by 50%.

The nature of data set [2]: GI S9 stability (Ex. Z), dog intestinal S9. Type of data set: in vitro ADME. Particulars: pooled intestinal S9 fractions; dog intestinal S9, 1.0 mg/mL protein, 2 μM substrate, pH 7.4; read-out: GIS9 DOG T½ (per Ex. Z). As for the experimental part: Example Z: GI S9 stability data:
Stock solutions of test compounds in dimethyl sulfoxide (DMSO) having a final concentration of 10 mM were prepared and used in all experiments. Sekisui XenoTech (Kansas City, KS) provided pooled intestinal S9 fractions. All other chemicals were purchased from Sigma-Aldrich (St. Louis, MO) or VWR (West Chester, PA). Internal Standard/Quench (IS/Q) used to stop reactions was 100 nM labetalol in (by volume) methanol (10%) and acetonitrile (90%).
Stability in Intestinal S9 Fractions: Duplicate aliquots of test compound or positive control substrate were added to S9 stock diluted with phosphate buffered saline (137 mM NaCl, 2.7 mM KCl, 10 mM phosphate buffer), pH 7.4, to obtain a protein concentration of 1.0 mg/mL. The metabolic reactions were initiated by the addition of the substrates to the S9 reaction mixture to a final concentration of 2 μM. At 0, 10, 20, 30, 60 and 120 min, 25 μL aliquots of the reaction mixture were transferred to plates containing 225 μl of IS/Q solution. After quenching, the plates were centrifuged at 3000×g for 30 minutes. 150 μL aliquots of each supernatant were dried down then reconstituted with 300 μL water. Aliquots (10 μL) of the prepared samples were analyzed on a Thermo Q-Exactive mass spectrometer as described below.
Liquid Chromatography—Mass Spectrometry: Quantification of test compounds and control substrate was performed by analyte/internal standard peak area ratio (PAR) values measured on a Thermo Q-Exactive mass spectrometer coupled to a Dionex UltiMate 3000 HPLC with a Leap Technologies HTC PAL autosampler. The column used for analysis was a Waters Acquity BEH C18 (1.7 μm particle size, 2.1×50 mm). Mobile phase A consisted of 0.1% (v/v) formic acid in water. Mobile phase B consisted of 0.1% (v/v) formic acid in acetonitrile. Elution of analytes was achieved by a series of linear gradients varying the proportions of A and B. The mass spectrometer was calibrated on a weekly basis and mass tolerance of 5 ppm was used.
Metabolic stabilities in S9 fractions were determined by measuring the rates of disappearance of test compound and positive control substrate.
Data (% of substrate remaining) were plotted on a semi-log scale and fitted using an exponential decline model:
Where Ct—% of substrate remaining at time=t; C0—% of substrate remaining at time=0; t—time; T½—half-life The Half-life (T½) is determined by the following equation: […]
Assuming a first-order reaction, the slope (k) is extrapolated from the aforementioned plotted data.

For `CC1(C(=O)OC[C@@]2(C#N)O[C@@H](c3ccc4c(N)ncnn34)[C@H](O)[C@@H]2O)CCC1` [Compound 24, ((2R,3S,4R,5S)-5-(4-aminopyrrolo[2,1-f][1,2,4]triazin-7-yl)-2-cyano-3,4-dihydroxytetrahydrofuran-2-yl)methyl 1-methylcyclobutane-1-carboxylate], the EC50 (in general, the concentration giving half of the maximal effect) in data set [1] was found to be 10.8 µM. Turning to `N#C[C@]1(COC(=O)C2CCCCC2)O[C@@H](c2ccc3c(N)ncnn23)[C@H](O)[C@@H]1O` [Compound 19, ((2R,3S,4R,5S)-5-(4-aminopyrrolo[2,1-f][1,2,4]triazin-7-yl)-2-cyano-3,4-dihydroxytetrahydrofuran-2-yl)methyl cyclohexanecarboxylate], the half-life at 2 μM in data set [2] was 48 min. Moreover, the EC50 in data set [1] came to 10.9 µM. With `CC(C)(CF)C(=O)OC[C@@]1(C#N)O[C@@H](c2ccc3c(N)ncnn23)[C@H](O)[C@@H]1O` [Compound 29, ((2R,3S,4R,5S)-5-(4-aminopyrrolo[2,1-f][1,2,4]triazin-7-yl)-2-cyano-3,4-dihydroxytetrahydrofuran-2-yl)methyl 3-fluoro-2,2-dimethylpropanoate], the EC50 in data set [1] was 13 µM. For the molecule `[H]/N=c1/c2ccc([C@@H]3O[C@](C#N)(CO)[C@@H](O)[C@H]3O)n2ncn1COC(=O)C(C)C` [Compound 34, (7-((2S,3R,4S,5R)-5-cyano-3,4-dihydroxy-5-(hydroxymethyl)tetrahydrofuran-2-yl)-4-iminopyrrolo[2,1-f][1,2,4]triazin-3(4H)-yl)methyl isobutyrate], the EC50 in data set [1] came out at 39.1 µM. As for `CC[C@@H](C)C(=O)OC[C@@]1(C#N)O[C@@H](c2ccc3c(N)ncnn23)[C@H](O)[C@@H]1O` [Compound 37, ((2R,3S,4R,5S)-5-(4-aminopyrrolo[2,1-f][1,2,4]triazin-7-yl)-2-cyano-3,4-dihydroxytetrahydrofuran-2-yl)methyl (R)-2-methylbutanoate], in data set [1], the EC50 worked out at 9.93 µM. Same read-out and setting: then `CC1(CC(=O)OC[C@@]2(C#N)O[C@@H](c3ccc4c(N)ncnn34)[C@H](O)[C@@H]2O)CCC1` [Compound 33, ((2R,3S,4R,5S)-5-(4-aminopyrrolo[2,1-f][1,2,4]triazin-7-yl)-2-cyano-3,4-dihydroxytetrahydrofuran-2-yl)methyl 2-(1-methylcyclobutyl)acetate], with 50 µM; and `CC(=O)OC[C@@]1(C#N)O[C@@H](c2ccc3c(NC(=O)C(C)C)ncnn23)[C@H](O)[C@@H]1O` [Compound 23, ((2R,3S,4R,5S)-2-cyano-3,4-dihydroxy-5-(4-isobutyramidopyrrolo[2,1-f][1,2,4]triazin-7-yl)tetrahydrofuran-2-yl)methyl acetate], with 14.9 µM.

Regarding `CC(C)(C)CCC(=O)OC[C@@]1(C#N)O[C@@H](c2ccc3c(N)ncnn23)[C@H](O)[C@@H]1O` [Compound 36, ((2R,3S,4R,5S)-5-(4-aminopyrrolo[2,1-f][1,2,4]triazin-7-yl)-2-cyano-3,4-dihydroxytetrahydrofuran-2-yl)methyl 4,4-dimethylpentanoate], the EC50 in data set [1] worked out at 10.8 µM. As for `CC(=O)OC[C@@]1(C#N)O[C@@H](c2ccc3c(N)ncnn23)[C@H](OC(C)=O)[C@@H]1OC(C)=O` [Compound 28, (2R,3S,4S,5S)-2-(acetoxymethyl)-5-(4-aminopyrrolo[2,1-f][1,2,4]triazin-7-yl)-2-cyanotetrahydrofuran-3,4-diyl diacetate], the EC50 in data set [1] is 24.6 µM. Still for that read-out and setting: then `CC(C)(C)CC(=O)Nc1ncnn2c([C@@H]3O[C@](C#N)(COC(=O)CC(C)(C)C)[C@@H](O)[C@H]3O)ccc12` [Compound 26, ((2R,3S,4R,5S)-2-cyano-5-(4-(3,3-dimethylbutanamido)pyrrolo[2,1-f][1,2,4]triazin-7-yl)-3,4-dihydroxytetrahydrofuran-2-yl)methyl 3,3-dimethylbutanoate], with 26.6 µM. As to `N#C[C@]1(COC(=O)Cc2ccccc2)O[C@@H](c2ccc3c(N)ncnn23)[C@H](O)[C@@H]1O` [Compound 38, ((2R,3S,4R,5S)-5-(4-aminopyrrolo[2,1-f][1,2,4]triazin-7-yl)-2-cyano-3,4-dihydroxytetrahydrofuran-2-yl)methyl 2-phenylacetate], the EC50 in data set [1] stood at 10.6 µM. `N#C[C@]1(COC(=O)C2CC3(CCC3)C2)O[C@@H](c2ccc3c(N)ncnn23)[C@H](O)[C@@H]1O` [Compound 32, ((2R,3S,4R,5S)-5-(4-aminopyrrolo[2,1-f][1,2,4]triazin-7-yl)-2-cyano-3,4-dihydroxytetrahydrofuran-2-yl)methyl spiro[3.3]heptane-2-carboxylate]: the EC50 in data set [1] came to 6.7 µM.

As for `N#C[C@]1(COC(=O)[C@H]2CCC(=O)O2)O[C@@H](c2ccc3c(N)ncnn23)[C@H](O)[C@@H]1O` [Compound 25, ((2R,3S,4R,5S)-5-(4-aminopyrrolo[2,1-f][1,2,4]triazin-7-yl)-2-cyano-3,4-dihydroxytetrahydrofuran-2-yl)methyl (R)-5-oxotetrahydrofuran-2-carboxylate], the EC50 in data set [1] is 11.7 µM. Same read-out and setting: the value for `CCC(C)(C)CC(=O)OC[C@@]1(C#N)O[C@@H](c2ccc3c(N)ncnn23)[C@H](O)[C@@H]1O` [Compound 27, ((2R,3S,4R,5S)-5-(4-aminopyrrolo[2,1-f][1,2,4]triazin-7-yl)-2-cyano-3,4-dihydroxytetrahydrofuran-2-yl)methyl 3,3-dimethylpentanoate] was 12.2 µM. With `CCC(C)(C)C(=O)OC[C@@]1(C#N)O[C@@H](c2ccc3c(N)ncnn23)[C@H](O)[C@@H]1O` [Compound 35, ((2R,3S,4R,5S)-5-(4-aminopyrrolo[2,1-f][1,2,4]triazin-7-yl)-2-cyano-3,4-dihydroxytetrahydrofuran-2-yl)methyl 2,2-dimethylbutanoate], the EC50 in data set [1] worked out at 9.6 µM. Regarding `CC(C)C(=O)Nc1ncnn2c([C@@H]3O[C@](C#N)(CO)[C@@H](O)[C@H]3O)ccc12` [Compound 30, N-(7-((2S,3R,4S,5R)-5-cyano-3,4-dihydroxy-5-(hydroxymethyl)tetrahydrofuran-2-yl)pyrrolo[2,1-f][1,2,4]triazin-4-yl)isobutyramide], the EC50 in data set [1] was found to be 38.5 µM. In the case of `CC(C)C(=O)O[C@H]1[C@H](c2ccc3c(N)ncnn23)O[C@](C#N)(COC(=O)c2ccccc2)[C@H]1O` [Compound 22, ((2R,3S,4R,5S)-5-(4-aminopyrrolo[2,1-f][1,2,4]triazin-7-yl)-2-cyano-3-hydroxy-4-(isobutyryloxy)tetrahydrofuran-2-yl)methyl benzoate], the EC50 in data set [1] amounted to 11.3 µM.
